Measured values as given in the supplement of paper PMC11821682.

Experiments:
Danio rerio embryo = assay: BMC10 any morphological effect or mortality at 120 hpf; higher = less toxic
HL-60 = assay: Cell Health Index (toxicity pseudo-probability over dose series) (index 0-1); higher = more cytotoxic / cell stress;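 note: HL-60 cells exposed 4 h at 37 °C to ten threefold dilutions spanning 5 nM to 100 µM, multiparametric flow cytometry features scored by machine-learning classification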

Row | Compound | BMC10 any morphological effect or mortality (Danio rerio embryo) [µM] | Cell Health Index (HL-60)
1 | Nc1ccn([C@H]2CC[C@@H](CO)O2)c(=O)n1 [Zalcitabine] | > 100 | 0.193
2 | Nc1ccc(-c2nc3ccc(-c4nc5cc(N)ccc5[nH]4)cc3[nH]2)cc1 [Ro 90-7501] | > 100 | 0.512
3 | O=C(c1ccccc1)c1ccc2nc(NC(=O)c3csc(C4CCN(c5ncnc6ccsc56)CC4)n3)[nH]c2c1 | > 100 | 0.507
4 | O=C1O[C@@H]2[C@H]3OC(=O)c4cc(O)c(O)c(O)c4-c4c(cc(O)c(O)c4O)C(=O)OC[C@@H]2OC(OC(=O)c2cc(O)c(O)c(O)c2)[C@H]3OC(=O)c2cc(O)c(O)c3c2C2C1=CC(=O)C(O)(O3)C2(O)O (some centres not stated) [Geraniin] | > 100 | 0.824
5 | CC1(C)[C@@H](O[C@H]2O[C@H](C(=O)O)[C@@H](O)[C@H](O)[C@H]2O[C@@H]2O[C@H](C(=O)O)[C@@H](O)[C@H](O)[C@H]2O)CC[C@]2(C)[C@H]3C(=O)C=C4[C@@H]5C[C@@](C)(C(=O)O)CC[C@]5(C)CC[C@@]4(C)[C@]3(C)CC[C@@H]12.N [Glycyrrhizin] | > 100 | 0.295
6 | Nc1ccn(C[C@@H](CO)OCP(=O)(O)O)c(=O)n1 [Cidofovir] | > 100 | 0.144
7 | C[C@@H]1O[C@@H](O[C@@H]2[C@@H](O)[C@H](OCCc3ccc(O)c(O)c3)O[C@H](CO)[C@H]2OC(=O)/C=C/c2ccc(O)c(O)c2)[C@H](O)[C@H](O)[C@H]1O [Verbascoside] | > 100 | 0.843
8 | CC1(C)O[C@H]2CC(=O)OC[C@]23[C@H]2CC[C@@]4(C)[C@H](c5ccoc5)OC(=O)[C@H]5O[C@]54[C@]2(C)C(=O)C[C@@H]13 [Limonin] | > 100 | 0.145
9 | O=P([O-])(O)C(O)(Cc1cccnc1)P(=O)(O)O.[Na+] [Risedronic acid] | > 100 | 0.203
10 | C[C@H]1CC[C@@]2(O)C(C)(C)[C@@H]3CC[C@@]2(C)[C@H]1C3 [Patchouli alcohol] | > 100 | 0.202
11 | CCN(CC)CCCC(C)Nc1ccnc2cc(Cl)ccc12.O=P(O)(O)O.O=P(O)(O)O (configuration not stated) [Chloroquine] | > 100 | 0.236
12 | CC(C)[C@H](N)C(=O)OCC(CO)OCn1cnc2c(=O)nc(N)[nH]c21.Cl (some centres not stated) [Valganciclovir] | > 100 | 0.247
13 | COc1cccc(N2CCN(C3=Nc4c(F)cccc4[C@H](CC(=O)O)N3c3cc(C(F)(F)F)ccc3OC)CC2)c1 [Letermovir] | > 100 | 0.303
14 | C[n+]1cccc(C(=O)O)c1.[Cl-] [Trigonelline] | > 100 | 0.15
15 | C=C[C@H]1C[C@@]1(NC(=O)[C@@H]1C[C@@H]2CN1C(=O)[C@H](C(C)(C)C)NC(=O)O[C@@H]1C[C@H]1CCCCCc1nc3ccc(OC)cc3nc1O2)C(=O)NS(=O)(=O)C1CC1 [Grazoprevir] | > 100 | 0.532
16 | COC(=O)N[C@H](C(=O)N1CC2(CC2)C[C@H]1c1ncc(-c2ccc3c(c2)C(F)(F)c2cc(-c4ccc5nc([C@@H]6[C@H]7CC[C@H](C7)N6C(=O)[C@@H](NC(=O)OC)C(C)C)[nH]c5c4)ccc2-3)[nH]1)C(C)C [Ledipasvir] | > 100 | 0.231

Row | Compound | BMC10 any morphological effect or mortality (Danio rerio embryo) [µM] | Cell Health Index (HL-60)
17 | O.Oc1cc(O)c2c(c1)O[C@H](c1ccc(O)c(O)c1)[C@@H](O)C2 (racemic) [(±)-Catechin] | > 100 | 0.804
18 | C=C(C)[C@@H]1CC[C@]2(C=O)CC[C@]3(C)[C@H](CC[C@@H]4[C@@]5(C)CC[C@H](O)C(C)(C)[C@@H]5CC[C@]43C)[C@@H]12 [Betulinic aldehyde] | > 100 | 0.515
19 | Cn1c(Cn2ccc(C(F)(F)F)c(Oc3cc(Cl)cc(C#N)c3)c2=O)n[nH]c1=O [Doravirine] | > 100 | 0.198
20 | C[C@@H]1O[C@@H](OC[C@H]2O[C@@H](Oc3c(-c4ccc(O)c(O)c4)oc4cc(O)cc(O)c4c3=O)[C@H](O)[C@@H](O)[C@@H]2O)[C@H](O)[C@H](O)[C@H]1O.O.O.O [Rutin] | > 100 | 0.252
21 | CCN(CCO)CCCC(C)Nc1ccnc2cc(Cl)ccc12.O=S(=O)(O)O (configuration not stated) [Hydroxychloroquine] | > 100 | 0.211
22 | CC(C)OC(=O)[C@H](C)NP(=O)(OC[C@H]1O[C@@H](n2ccc(=O)[nH]c2=O)[C@](C)(F)[C@@H]1O)Oc1ccccc1 (some centres not stated) [Sofosbuvir] | > 100 | 0.166
23 | N[C@H]1CONC1=O [L-Cycloserine] | > 100 | 0.19
24 | CC(C)[C@H](N)C(=O)OCCOCn1cnc2c(=O)nc(N)[nH]c21.Cl [Valacyclovir] | > 100 | 0.145
25 | O=C(/C=C/c1ccc(O)c(O)c1)O[C@@H]1C[C@](O)(C(=O)O)C[C@@H](O)[C@H]1O [Chlorogenic acid] | > 100 | 0.232
26 | Cl.OC[C@H]1NC[C@H](O)[C@@H](O)[C@@H]1O [Duvoglustat] | > 100 | 0.147
27 | Cc1cn([C@H]2C=C[C@@H](CO)O2)c(=O)[nH]c1=O [Stavudine] | > 100 | 0.204
28 | Cl.Nc1ccn([C@@H]2O[C@H](CO)[C@@H](O)C2(F)F)c(=O)n1 [Gemcitabine] | > 100 | 0.172
29 | CCCOCCCCCCCCCC(=O)O [10-propoxy-Decanoic acid] | > 100 | 0.168
30 | Cc1cnc(C(=O)N[C@H]2CCCCC/C=C\[C@@H]3C[C@@]3(C(=O)NS(=O)(=O)C3CC3)NC(=O)[C@@H]3C[C@@H](Oc4nc5ccccc5c5ccccc45)CN3C2=O)cn1 [Paritaprevir] | > 100 | 0.626
31 | CC(N)C12C[C@H]3C[C@@H](C1)C[C@@H](C2)C3.Cl (some centres not stated) [Rimantadine] | > 100 | 0.137
